Legend:
RARβ = target: T1, RARβ (Homo sapiens, UniProt P10826); test: ligand binding assay, RARβ; conditions: second entry of cell, read-out: RAR Bind. Ki (nM) β
T1 sequence (P10826 1-455): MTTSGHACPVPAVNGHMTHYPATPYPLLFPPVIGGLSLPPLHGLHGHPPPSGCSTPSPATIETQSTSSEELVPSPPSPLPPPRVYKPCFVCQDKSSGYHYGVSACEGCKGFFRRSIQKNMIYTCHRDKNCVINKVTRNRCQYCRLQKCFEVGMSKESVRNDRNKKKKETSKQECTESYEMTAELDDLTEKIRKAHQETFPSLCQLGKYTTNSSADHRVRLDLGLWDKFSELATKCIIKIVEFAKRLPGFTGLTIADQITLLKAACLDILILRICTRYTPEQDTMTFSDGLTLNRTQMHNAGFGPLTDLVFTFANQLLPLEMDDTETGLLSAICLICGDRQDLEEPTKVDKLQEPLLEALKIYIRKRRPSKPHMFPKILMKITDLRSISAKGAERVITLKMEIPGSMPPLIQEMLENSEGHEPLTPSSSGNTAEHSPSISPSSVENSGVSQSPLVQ
Text: (§1) A holoreceptor transactivation assay and a ligand binding assay which measure the antagonist/agonist like activity of the compounds of the invention, or their ability to bind to the several retinoid receptor subtypes, respectively, are described in published PCT Application No. WO WO93/11755 (particularly on pages 30-33 and 37-41) published on Jun. 24, 1993, the specification of which is also incorporated herein by reference. A detailed experimental procedure for holoreceptor transactivations has been described by Heyman et al. Cell 68, 397-406, (1992); Allegretto et al. J. Biol. Chem. 268, 26625-26633, and Mangelsdorf et al. The Retinoids: Biology, Chemistry and Medicine, pp 319-349, Raven Press Ltd., New York, which are expressly incorporated herein by reference. The results obtained in this assay are expressed in EC50 numbers, as they are also in the chimeric receptor transactivation assay. The results of ligand binding assay are expressed in Kd numbers. (See Cheng et al. Biochemical Pharmacology Vol. 22 pp 3099-3108, expressly incorporated herein by reference.)

RXRα = target: T2, RXRα (Homo sapiens, UniProt P19793); test: receptor transactivation assay, RXRα; format: cell-based; conditions: first entry of cell, read-out: RXR Trans. EC50 (nM) α
T2 construct: the only RXRα plasmid printed
T2 sequence (P19793 227-462 limits assumed): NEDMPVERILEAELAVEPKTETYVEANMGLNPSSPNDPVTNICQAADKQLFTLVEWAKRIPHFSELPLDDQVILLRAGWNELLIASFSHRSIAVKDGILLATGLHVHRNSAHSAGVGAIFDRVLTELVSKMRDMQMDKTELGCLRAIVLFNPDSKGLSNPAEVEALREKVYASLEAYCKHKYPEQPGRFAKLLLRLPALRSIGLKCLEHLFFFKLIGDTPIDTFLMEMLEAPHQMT
Text: as §1

RXRβ [1] = target: T3, RXRβ (UniProt P28704); test: ligand binding assay, RXRβ; design: other: RXRβ; last entry of cell; conditions: last entry of cell, read-out: RXR Bind Ki (nM) β
T3 sequence (P28704 1-520): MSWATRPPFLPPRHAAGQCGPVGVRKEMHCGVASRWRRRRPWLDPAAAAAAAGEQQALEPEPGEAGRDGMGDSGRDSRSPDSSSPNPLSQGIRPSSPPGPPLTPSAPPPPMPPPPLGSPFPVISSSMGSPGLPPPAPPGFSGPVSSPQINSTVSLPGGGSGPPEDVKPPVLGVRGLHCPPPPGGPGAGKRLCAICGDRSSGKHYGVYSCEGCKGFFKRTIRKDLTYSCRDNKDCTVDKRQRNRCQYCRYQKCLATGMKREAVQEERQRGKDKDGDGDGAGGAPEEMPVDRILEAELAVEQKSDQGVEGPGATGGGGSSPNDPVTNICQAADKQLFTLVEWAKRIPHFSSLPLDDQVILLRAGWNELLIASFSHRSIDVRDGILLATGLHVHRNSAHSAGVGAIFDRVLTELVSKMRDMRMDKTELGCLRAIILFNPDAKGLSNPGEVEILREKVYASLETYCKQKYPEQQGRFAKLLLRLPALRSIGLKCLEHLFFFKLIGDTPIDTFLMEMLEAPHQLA
Text: as §1

RXRβ [2] = target: T3, RXRβ; test: receptor transactivation assay, RXRβ; format: cell-based; design: RXR Trans; other: RXRβ; first entry of cell; conditions: for EC50: first entry of cell, read-out: RXR Trans. EC50 (nM) β; for RXR Trans. β, number in parentheses after EC50: parenthesised number, not defined in the patent
Text: as §1

RXRγ = target: T4, RXRγ (UniProt P28705); test: receptor transactivation assay, RXRγ; format: cell-based; design: RXR Trans; other: RXRγ; first entry of cell; conditions: for EC50: first entry of cell, read-out: RXR Trans. EC50 (nM) γ; for RXR Trans. γ, number in parentheses after EC50: parenthesised number, not defined in the patent
T4 sequence (P28705 1-463): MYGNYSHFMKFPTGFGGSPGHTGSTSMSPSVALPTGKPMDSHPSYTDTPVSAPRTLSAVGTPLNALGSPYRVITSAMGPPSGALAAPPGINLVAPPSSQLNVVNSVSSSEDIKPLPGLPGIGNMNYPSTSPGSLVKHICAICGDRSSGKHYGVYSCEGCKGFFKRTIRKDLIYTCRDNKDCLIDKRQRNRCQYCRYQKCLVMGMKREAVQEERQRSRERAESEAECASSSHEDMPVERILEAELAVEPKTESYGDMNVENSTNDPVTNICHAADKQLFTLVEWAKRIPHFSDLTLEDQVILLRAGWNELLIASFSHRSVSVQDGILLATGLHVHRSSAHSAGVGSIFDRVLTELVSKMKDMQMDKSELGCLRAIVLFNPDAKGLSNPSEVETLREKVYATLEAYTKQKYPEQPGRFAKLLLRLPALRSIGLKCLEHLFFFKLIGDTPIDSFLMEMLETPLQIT
Text: as §1

Ki (RARβ)	EC50 (RXRα)	Ki (RXRβ [1])	EC50 (RXRβ [2])	RXR Trans. β, number in parentheses after EC50 (RXRβ [2])	EC50 (RXRγ)	RXR Trans. γ, number in parentheses after EC50 (RXRγ)	SMILES
15000 nM	0.25 nM	5.1 nM	2.8 nM	96	0.36 nM	99	CCCCCCc1cc([C@@]2(C)C[C@H]2/C=C/C(C)=C/C(=O)O)cc2c1OCC2(C)C [Compound 18, (6S,7S)-7-[5-(3,3-Dimethyl-7-hexyl-2,3-dihydro-benzofuranyl)]-6,7-methano-3-methyl-octa-2E,4E-dienoic acid]
> 10000 nM	2.4 nM	21.5 nM	12 nM	108	3.4 nM	111	CC(/C=C/[C@@H]1C[C@]1(C)c1cc(Br)c2c(c1)C(C)(C)CO2)=C\C(=O)O [Compound 20, (6S,7S)-7-[5-(7-Bromo-3,3-dimethyl-2,3-dihydro-benzofuranyl)]-6,7-methano-3-methyl-octa-2E,4E-dienoic Acid]
> 10000 nM	8.3 nM	9.6 nM	28.4 nM	75	12.8 nM	110	CC(/C=C/[C@@H]1C[C@]1(C)c1cc(-c2ccccc2)c2c(c1)C(C)(C)CO2)=C\C(=O)O [Compound 22, 6S,7S)-7-[5-(3,3-Dimethyl-7-phenyl-2,3-dihydro-benzofuranyl)1-6,7-methano-3-methyl-octa-2E,4E-dienoic acid]
> 10000 nM	0.52 nM	2.6 nM	6.7 nM	125	0.86 nM	105	CC(/C=C/[C@@H]1C[C@]1(C)c1cc(-c2c(C)cccc2C)c2c(c1)C(C)(C)CO2)=C\C(=O)O [Compound 24, 5-{(1 S 2S)-2-[7-(2,6-Dimethyl-phenyl)-3,3-dimethyl-2,3-dihydro-benzofuran-5-yl]-2-methyl-cyclopropyl}-3-methyl-penta-2E,4E-dienoic acid]
> 10000 nM	0.2 nM	1.9 nM	0.65 nM	99	0.32 nM	107	CC(/C=C/[C@@H]1C[C@]1(C)c1cc(-c2ccccc2C)c2c(c1)C(C)(C)CO2)=C\C(=O)O [Compound 26, 5-[(1S,2S)-2-(3,3-Dimethyl-7-o-tolyl-2,3-dihydro-benzofuran-5-yl)-2-methyl-cyclopropyl]-3-methyl-penta-2E,4E-dienoic acid]
3740 nM	594 nM	111 nM	> 1000 nM		850 nM	88	CCCCCCCc1ccccc1-c1cc([C@@]2(C)C[C@H]2/C=C/C(C)=C/C(=O)O)cc2c1OCC2(C)C [Compound 28]
> 10000 nM	1520 nM	441 nM	> 1000 nM	50	> 1000 nM	80	CC(/C=C/[C@@H]1C[C@]1(C)c1cc(-c2ccc(C(C)(C)C)cc2)c2c(c1)C(C)(C)CO2)=C\C(=O)O [Compound 30, 5-{(1S, 2S)-2-[7-(4-tert-Butyl-phenyl)-3,3-dimethyl-2,3-dihydro-benzofuran-5-]-2-methyl-cyclopropyl}-3-methyl-pent-2E,4E-dienoic Acid]
15000 nM	581 nM	926 nM	> 1000 nM		561 nM	106	COc1ccc(-c2cc([C@@]3(C)C[C@H]3/C=C/C(C)=C/C(=O)O)cc3c2OCC3(C)C)cc1 [Compound 32, (E)-3-((E)-2-{(1S,2S)-2-[7-(4-Methoxy-phenyl)-3,3-dimethyl-2,3-dihydro-benzofuran-5-yl]-2-methyl-cyclopropyl}-vinyl)-but-2-enoic acid]
8750 nM	0.37 nM	4 nM	4.55 nM	93	0.56 nM	109	CC(/C=C/[C@@H]1C[C@]1(C)c1cc(-c2ccc(F)cc2)c2c(c1)C(C)(C)CO2)=C\C(=O)O [Compound 34, (E)-3-((E)-2-{(1S,2S)-2-[7-(4-Fluoro-phenyl)-3,3-dimethyl-2,3-dihydro-benzofuran-5-yl]-2-methyl-cyclopropyl}-vinyl)-but-2-enoic acid]
> 10000 nM	609 nM	312 nM	> 1000 nM		743 nM	109	CC(/C=C/[C@@H]1C[C@@H]1c1ccc2c(c1)C(C)(C)CO2)=C\C(=O)O [Compound 36, (E)-3-{(E)-2-F[(1S,2S)-2-(3,3-Dimethyl-2,3-dihydro-benzofuran-5-yl)-cyclopropyl]-vinyl}-but-2-enoic acid]
> 10000 nM	1950 nM	557 nM	1360 nM		7680 nM	142	CCCCC(O)CCc1cc([C@@]2(C)C[C@H]2/C=C/C(C)=C/C(=O)O)cc2c1OCC2(C)C (stereo partly drawn) [Compound 38, (E)-3-((E)-2-{(1S,2S)-2-[7-(3-Hydroxy-heptyl)-3,3-dimethyl-2,3-dihydro-benzofuran-5-yl]-2-methyl-cyclopropyl}-vinyl)-but-2-enoic acid]
22000 nM	330 nM	69 nM	2040 nM	103	395 nM	94	CCCCC(=O)CCc1cc([C@@]2(C)C[C@H]2/C=C/C(C)=C/C(=O)O)cc2c1OCC2(C)C [Compound 40]
